In patent US7173027B2, “Receptor selective cannabimimetic aminoalkylindoles” (University of Connecticut, priority 2001, dated 2007):
Like-named read-outs stand apart in the source and are kept apart here.

Columns and labels:
[1] = target: T1, CB2 receptor (Mus musculus, UniProt P47936); experiment: CB2 receptor binding, mouse spleen membranes, [3H]CP-55,940 displacement; settings: for Ki: mouse spleen membranes
T1 construct: membranes were prepared from frozen mouse spleen; from tissue; host or cells: frozen mouse spleen membranes
Description: (§1) The prepared cannabinoid compounds were tested for CB2 receptor binding affinity and for CB1 receptor affinity (to determine selectivity for the CB2 receptor). As used herein, “binding affinity” is represented by the IC50 value which is the concentration of an analog required to occupy the 50% of the total number (Bmax) of the receptors. The lower the IC50 value, the higher the binding affinity. […] The binding affinities (Ki) are expressed in nanomoles (nM).
(§2) The treated membranes were subsequently used in the binding assay described below. Approximately 30 μg of membranes were incubated in silanized 96-well microtiter plate with TME containing 0.1% essentially fatty acid-free bovine serum albumin (BSA), 0.8 nM [^3H] CP-55,940, and various concentrations of test materials at 30° C. for 1 hour. The samples were immediately filtered using a Packard Filtermate 196 and Whatman GF/C filterplates and washed with wash buffer (TME) containing 0.5% BSA. Radioactivity was detected using MicroScint 20 scintillation cocktail added directly to the dried filterplates, and the filterplates were counted using a Packard Instruments Top-Count. Nonspecific binding was assessed using 100 nM CP-55,940. Data collected from three independent experiments performed with duplicate determinations was normalized between 100% and 0% specific binding for [^3H] CP-55,940, determined using buffer and 100 nM CP-55,940.The normalized data was analyzed using a 4-parameter nonlinear logistic equation to yield IC50 values. Data from at least two independent experiments performed in duplicate was used to calculate IC50 values which were converted to Ki values using the using the assumptions of Cheng et al; “Relationship Between the Inhibition Constant (Ki) and the concentration of Inhibitor which causes 50% Inhibition (IC50) of an Enzymatic Reaction”, Biochem. Pharmacol., 22, 3099–3102, (1 973), which is incorporated by reference herein.
For the CB2 receptor binding studies, membranes were prepared from frozen mouse spleen essentially according to the procedure of P. R. Dodd et al; “A Rapid Method for Preparing Synaptosomes: Comparison with Alternative Procedures”, Brain Res., 226, 107–118 (1981) which is incorporated by reference herein. Silanized centrifuge tubes were used throughout to minimize receptor loss due to adsorption. The CB2 binding assay was conducted in the same manner as the CB1 binding assay. The binding affinities (Ki) were also expressed in nanomoles (nM).

[2] = target: T2, CB1 receptor (Rattus norvegicus, UniProt P20272); experiment: CB1 receptor binding, rat forebrain membranes, [3H]CP-55,940 displacement
T2 construct: membranes were prepared from rat forebrain membranes; from tissue; host or cells: rat forebrain membranes
Description: as §1
For the CB1 receptor-binding studies, membranes were prepared from rat forebrain membranes according to the procedure of P. R. Dodd et al; A Rapid Method for Preparing Synaptosomes: Comparison with Alternative Procedures, Brain Res., 107–118 (1981). The binding of the novel analogues to the CB1 cannabinoid receptor was assessed as described in W. A. Devane et al; Determination and Characterization of a Cannabinoid Receptor in a Rat Brain, Mol. Pharmacol., 34, 605–613 (1988) and A. Charalambous et al; “5′-azido ^8−-THC: A Novel Photoaffinity Label for the Cannabinoid Receptor”, J. Med. Chem., 35, 3076–3079 (1992) with the following changes. The above articles are incorporated by reference herein.
Membranes, previously frozen at −80° C., were thawed on ice. To the stirred suspension was added three volumes of TME (25 mM Tris-HCl buffer, 5 mM MgCl2 and 1 mM EDTA) at a pH 7.4.The suspension was incubated at 4° C. for 30 min. At the end of the incubation, the membranes were pelleted and washed three times with TME.
as §2

[3] = target: T3, human CB2 receptors (Homo sapiens, UniProt P34972); experiment: Binding affinity to human CB2 receptors, human tissue samples
T3 construct: using the below described procedure with human tissue samples; from tissue

[4] = Ki nM CB1, Table 2, 0.8 nM [3H]CP-55,940
[5] = Table 2, 0.8 nM [3H]CP-55,940, read-out: Ki nM CB1
[6] = Table 1, 0.8 nM [3H]CP-55,940, read-out: Ki nM CB1
[7] = Table 2, human CB2, read-out: Ki nM CB2 (Human)

T2 sequence (P20272 whole entry): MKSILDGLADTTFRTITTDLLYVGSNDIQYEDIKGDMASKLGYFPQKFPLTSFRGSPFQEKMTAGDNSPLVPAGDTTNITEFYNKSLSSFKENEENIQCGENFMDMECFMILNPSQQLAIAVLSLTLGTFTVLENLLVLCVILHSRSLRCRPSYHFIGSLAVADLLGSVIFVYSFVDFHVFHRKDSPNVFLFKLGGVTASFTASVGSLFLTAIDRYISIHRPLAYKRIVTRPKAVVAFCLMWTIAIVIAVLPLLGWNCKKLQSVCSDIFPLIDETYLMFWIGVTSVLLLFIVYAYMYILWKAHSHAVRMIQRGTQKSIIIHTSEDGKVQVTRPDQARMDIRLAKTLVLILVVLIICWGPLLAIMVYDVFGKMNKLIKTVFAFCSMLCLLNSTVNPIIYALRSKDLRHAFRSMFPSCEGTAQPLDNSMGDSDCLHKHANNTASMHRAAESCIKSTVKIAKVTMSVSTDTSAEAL
T1 sequence (P47936 whole entry): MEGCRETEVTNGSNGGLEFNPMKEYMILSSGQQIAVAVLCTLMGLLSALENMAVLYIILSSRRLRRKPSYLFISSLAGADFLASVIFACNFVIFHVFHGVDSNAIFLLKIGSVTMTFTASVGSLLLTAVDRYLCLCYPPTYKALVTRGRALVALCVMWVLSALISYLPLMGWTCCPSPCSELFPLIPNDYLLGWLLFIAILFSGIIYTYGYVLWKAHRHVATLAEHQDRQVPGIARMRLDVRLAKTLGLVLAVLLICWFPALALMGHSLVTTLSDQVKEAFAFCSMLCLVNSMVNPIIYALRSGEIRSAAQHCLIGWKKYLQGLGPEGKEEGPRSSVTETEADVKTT
T3 sequence (P34972 whole entry): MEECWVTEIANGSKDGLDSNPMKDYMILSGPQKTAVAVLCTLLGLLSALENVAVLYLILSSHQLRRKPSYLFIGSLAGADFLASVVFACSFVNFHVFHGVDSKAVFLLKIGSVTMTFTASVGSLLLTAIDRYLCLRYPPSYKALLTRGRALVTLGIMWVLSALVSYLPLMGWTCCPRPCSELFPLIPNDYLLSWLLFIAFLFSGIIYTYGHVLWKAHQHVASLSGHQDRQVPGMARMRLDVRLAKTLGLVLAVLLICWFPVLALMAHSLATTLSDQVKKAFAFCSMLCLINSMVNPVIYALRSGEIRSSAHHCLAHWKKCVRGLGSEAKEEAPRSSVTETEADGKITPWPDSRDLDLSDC

| Compound | Ki ([1]; Table 2, read-out: Ki nM CB2) | Ki [2, 5] | also measured |
| --- | --- | --- | --- |
| CN1CCCC[C@@H]1Cn1cc(C(=O)c2cc([N+](=O)[O-])ccc2I)c2ccccc21 [2-32(R)] |  |  | Ki ([1]; Ki nM CB2, Table 2): 1.42 nM; Ki [2, 4]: 140 nM; Ki [3]: 6.69 nM |
| CN1CCOCC1Cn1cc(C(=O)c2cccc3ccccc23)c2ccccc21 (stereo not drawn) [2-31] | 26.6 nM | 5.7 nM |  |
| CN1CCCCC1Cn1cc(C(=O)c2cnccn2)c2ccccc21 (stereo not drawn) [2-37] | 837 nM | 3540 nM |  |
| CN1CCCCC1Cn1cc(C(=O)c2cc(O)ccc2I)c2ccccc21 (stereo not drawn) [2-49] | 18.6 nM | 29.1 nM |  |
| CN1CCCC[C@H]1Cn1cc(C(=O)c2ccccc2I)c2ccccc21 [2-24(S)] |  |  | Ki [2, 6]: 561 nM |
| CN1CCCCC1Cn1cc(C(=O)c2cc(C(N)=O)ccc2I)c2ccccc21 (stereo not drawn) [2-48] | 47.2 nM | 390 nM |  |
| CN1CCCCC1Cn1cc(C(=O)c2cccc[n+]2[O-])c2ccccc21 (stereo not drawn) [2-43] | 1860 nM | 8820 nM |  |
| CN1CCCCC1Cn1cc(C(=O)c2ccc3ccccc3n2)c2ccccc21 (stereo not drawn) [2-35] | 20.9 nM | 14.4 nM |  |
| CN1CCCCC1Cn1cc(C(=O)c2cc([N+](=O)[O-])ccc2I)c2ccccc21 (racemic) [2-32(R,S)] | 3.41 nM | 239 nM | Ki [3, 7]: 13.6 nM |
| CN1CCCCC1Cn1cc(C(=O)c2cc(C#N)ccc2I)c2ccccc21 (stereo not drawn) [2-46] | 15.4 nM | 339 nM |  |
| O=C(c1cccc([N+](=O)[O-])c1I)c1cn(CC2COCCN2Cc2ccccc2)c2ccccc12 (stereo not drawn) [2-27] | 928 nM | 2380 nM |  |
| CN1CCCCC1Cn1cc(C(=O)c2ccccn2)c2ccccc21 (stereo not drawn) [2-42] | 147 nM | 421 nM |  |
| CN1CCCCC1Cn1cc(C(=O)c2ccnc3ccccc23)c2ccccc21 (stereo not drawn) [2-38] | 747 nM | 719 nM |  |
| CN1CCCCC1Cn1cc(C(=O)c2cc(C(=O)O)ccc2I)c2ccccc21 (stereo not drawn) [2-47] | 18.8 nM | 240 nM |  |
| O=C(c1cc([N+](=O)[O-])ccc1I)c1cn(CC2COCCN2Cc2ccccc2)c2ccccc12 (stereo not drawn) [2-26] | 1430 nM | 4210 nM |  |
| CN1CCCCC1Cn1cc(C(=O)c2cc([N+](=O)[O-])ccc2I)c2ccccc21 (racemic) [2-7(R, S)] |  |  | selectivity for the CB2 receptor (in words) ([1]; CB2 versus CB1 binding): high selectivity for the CB2 receptor; Ki ([1]; Table 1, read-out: Ki nM CB2): 5.7 nM; Ki [2, 6]: 403 nM; Ki ([3]; Table 1, human CB2, human tissue samples, read-out: Ki nM CB2 (human)): 1.6 nM; binding affinity to human CB2 receptors (in words) ([3]; human tissue samples): surprisingly potent cannabinoid |

| Compound | Ki ([1]; Table 2, read-out: Ki nM CB2) | Ki [2, 5] | also measured |
| --- | --- | --- | --- |
| CN1CCOCC1Cn1cc(C(=O)c2cccc([N+](=O)[O-])c2I)c2ccccc21 (stereo not drawn) [2-30] | 154 nM | 464 nM |  |
| CN1CCCCC1Cn1cc(C(=O)c2cnc3ccccc3c2)c2ccccc21 (stereo not drawn) [2-36] | 8.53 nM | 133 nM |  |
| CN1CCCCC1Cn1cc(C(=O)C23CC4CC(CC(C4)C2)C3)c2ccccc21 (stereo not drawn) [2-33, 1-(N-Methyl-2-piperidinyl)methyl-3-(1-adamantanecarbonyl)-1H-indole] |  |  | Ki ([1]; Ki nM CB2, Table 2): 4.8 nM; Ki [2, 4]: 11.9 nM; Ki [3]: 2.32 nM |
| CN1CCCCC1Cn1cc(C(=O)c2cnc3ccccc3n2)c2ccccc21 (stereo not drawn) [2-41] | 160 nM | 158 nM |  |
| O=C(c1ccccc1I)c1cn(CC2COCCN2Cc2ccccc2)c2ccccc12 (stereo not drawn) [2-25] | 1800 nM | 1220 nM |  |
| CN1CCCCC1Cn1cc(C(=O)c2cccs2)c2ccccc21 (stereo not drawn) [2-39] | 19.5 nM | 41.4 nM |  |
| CN1CCOCC1Cn1cc(C(=O)c2ccccc2I)c2ccccc21 (stereo not drawn) [2-28] | 226 nM | 27.9 nM |  |
| CN1CCCCC1Cn1cc(C(=O)c2cncc3ccccc23)c2ccccc21 (stereo not drawn) [2-44] | 7.04 nM | 16.9 nM |  |
| CN1CCCC[C@@H]1Cn1cc(C(=O)c2cc([N+](=O)[O-])ccc2I)c2ccccc21 [2-7(R)] |  |  | Ki ([1]; Ki nM CB2, Table 1): 0.53 nM; Ki ([2]; Ki nM CB1, Table 1, 0.8 nM [3H]CP-55,940): 285 nM |
| CN1CCCC[C@@H]1Cn1cc(C(=O)c2ccccc2I)c2ccccc21 [2-24(R)] |  |  | Ki [2, 6]: 1.8 nM |
| CN1CCCCC1Cn1cc(C(=O)c2cc3ccccc3cn2)c2ccccc21 (stereo not drawn) [2-40] | 14.5 nM | 28.6 nM |  |
| CN1CCCCC1Cn1cc(C(=O)c2cc(C#N)ccc2I)c2ccccc21 (stereo not drawn) [2-45] | 15.8 nM | 418 nM |  |
| CN1CCCCC1Cn1cc(C(=O)c2ccccc2I)c2ccccc21 (racemic) [2-34(R,S)] |  | 2.89 nM | Ki [3, 7]: 2.49 nM |
| CN1CCCC[C@H]1Cn1cc(C(=O)c2ccccc2I)c2ccccc21 [2-34(S)] |  |  | Ki [2, 4]: 14.2 nM |
| CN1CCOCC1Cn1cc(C(=O)c2cc([N+](=O)[O-])ccc2I)c2ccccc21 (stereo not drawn) [2-29] | 48.4 nM | 848 nM |  |
| CN1CCCC[C@@H]1Cn1cc(C(=O)c2ccccc2I)c2ccccc21 [2-34(R)] |  |  | Ki [2, 4]: 1.57 nM |
